35 compounds from patent US20020026052A1, “3-cyanoquinolines, 3-cyano-1,6-naphthyridines, and 3-cyano-1,7-naphthyridines as protein kinase inhibitors” (American Home Products Corporation, priority 2000, published 2002) can be followed below.

Each structure is given as a SMILES string.

The melting point is the temperature of the solid-liquid transition. For the compound `COc1cc(Nc2c(C#N)cnc3cc(-c4ccc(CN5CCN(C)CC5)cn4)ccc23)c(Cl)cc1Cl`, the melting point was 212 to 215 °C. With `COc1cc(Nc2c(C#N)cnc3cc(-c4cccc(CN5CCOCC5)n4)ccc23)c(Cl)cc1Cl` the figure was 181 to 183 °C; with `COc1cc(Nc2c(C#N)cnc3cc(-c4cc(CN5CCOCC5)ccn4)ccc23)c(Cl)cc1Cl`, 180 to 182 °C.

Take `COc1cc(Nc2c(C#N)cnc3cc(-c4cncc(CN5CCOCC5)c4)ccc23)c(Cl)cc1Cl`: the melting point lay in the range of 141 to 143 °C. For `COc1cc(Nc2c(C#N)cnc3cc(-c4ccc(CN5CCOCC5)cn4)ccc23)c(Cl)cc1Cl`, the melting point fell in the range of 220 to 222 °C. `COc1cc(Nc2c(C#N)cnc3cc(-c4ccc(CN5CCOCC5)nc4)ccc23)c(Cl)cc1Cl` came in with a melting point of 195 to 197 °C. Compound `N#Cc1cnc2cc(-c3csc(CN4CCOCC4)c3)ccc2c1Nc1ccc(Oc2ccccc2)cc1` [Example 7, 7-[5-(4-Morpholinylmethyl)-3-thienyl]-4-(4-phenoxyanilino)-3-quinolinecarbonitrile] showed a melting point of 221 to 223 °C.

`N#Cc1cnc2cc(-c3csc(CN4CCOCC4)c3)ccc2c1Nc1ccc(Cc2ccccc2)cc1` [Example 8, 4-(4-Benzylanilino)-7-[5-(4-morpholinylmethyl)-3-thienyl]-3-quinolinecarbonitrile] yielded a melting point of 228 to 230 °C.

Compound `N#Cc1cnc2cc(C#CCO)ccc2c1Nc1ccc(Cl)cc1Cl` [Example 14, 4-(2,4-Dichloroanilino)-7-(3-hydroxy-1-propynyl)-3-quinolinecarbonitrile] registered a melting point of 251 to 253 °C.

As to `N#Cc1cnc2cc(-c3ccc(-c4ccccn4)s3)ccc2c1Nc1ccc(Cl)cc1Cl` [Example 18, 4-(2,4-dichloroanilino)-7-[5-(2-pyridinyl)-2-thienyl]-3-quinolinecarbonitrile], the melting point was 270 °C (dec.). Take `COc1cc(Nc2c(C#N)cnc3cc(-c4ccc(/C=C/CN5CCOCC5)s4)ccc23)c(Cl)cc1Cl` [Example 21, 4-(2,4-Dichloro-5-methoxyanilino)-7-{5-[(E)-3-(4-morpholinyl)-1-propenyl]-2-thienyl}-3-quinolinecarbonitrile]: the melting point worked out at 145 °C.

In the case of `COc1cc(Nc2c(C#N)cnc3cc(-c4ccc(CN5CCOCC5)c(CN5CCOCC5)c4)ccc23)c(Cl)cc1Cl` [Example 34, 7-[3,4-bis(4-morpholinylmethyl)phenyl]-4-(2,4-dichloro-5-methoxyanilino)-3-quinolinecarbonitrile], the melting point fell in the range of 198 to 200 °C. Compound `COc1cc(Nc2c(C#N)cnc3cc(-c4csc(C5OCCO5)c4)ccc23)c(Cl)cc1Cl` [Example 42, 4-(2,4-dichloro-5-methoxyanilino)-7-[5-(1,3-dioxolan-2-yl)-3-thienyl]-3-quinoline-carbonitrile] came in with a melting point of 234 to 236 °C. As to `COc1cc(Nc2c(C#N)cnc3cc(-c4csc(C=O)c4)ccc23)c(Cl)cc1Cl` [Example 43, 4-(2,4-Dichloro-5-methoxyanilino)-7-(5-formyl-3-thienyl)-3-quinolinecarbonitrile], the melting point was 259 to 262 °C (dec.).

The compound `N#Cc1cnc2cc(-c3csc(C=O)c3)ccc2c1Nc1ccc(Cl)cc1Cl` [Example 44, 4-(2,4-dichloroanilino)-7-(5-formyl-3-thienyl)-3-quinolinecarbonitrile] showed a melting point of 286 to 288 °C.

In turn, `COc1cc(Nc2c(C#N)cnc3ccc(-c4csc(C=O)c4)cc23)c(Cl)cc1Cl` [Example 45, 4-(2,4-Dichloro-5-methoxyanilino)-6-(5-formyl-3-thienyl)-3-quinolinecarbonitrile] registered a melting point of 233 to 237 °C.

Compound `N#Cc1cnc2cc(-c3cncc(CN4CCOCC4)c3)ccc2c1Nc1ccc(Oc2ccccc2)cc1` [Example 48, 7-[5-(4-Morpholinylmethyl)-3-pyridinyl]-4-(4-phenoxyanilino)-3-quinolinecarbonitrile] gave a melting point of 185 to 187 °C.

As for `N#Cc1cnc2cc(-c3ccc(CN4CCOCC4)cn3)ccc2c1Nc1ccc(Oc2ccccc2)cc1` [Example 56, 7-[5-(4-Morpholinylmethyl)-2-pyridinyl]-4-(4-phenoxyanilino)-3-quinolinecarbonitrile], the melting point is 219 to 221 °C. Compound `N#Cc1cnc2ccc(-n3cccc3C=O)cc2c1Nc1cccc(Br)c1` [Example 60, 4-(3-Bromoanilino)-6-(2-formyl-1H-pyrrol-1-yl)-3-quinolinecarbonitrile] came in with a melting point of 94 to 95 °C. For the compound `Cn1ccnc1Sc1ccc(Nc2c(C#N)cnc3cc(-c4ccc(C=O)cc4)ccc23)cc1Cl` [Example 62, 4-{3-chloro-4-[(1-methyl-1H-imidazol-2-yl)sulfanyl]anilino}-7-(4-formylphenyl)-3-quinolinecarbonitrile], the melting point was > 240 °C (dec.). In the case of `Cn1ccnc1Sc1ccc(Nc2c(C#N)cnc3cc(-c4ccc(CN5CCOCC5)cc4)ccc23)cc1Cl` [Example 63, 4-{3-chloro-4-[(1-methyl-1H-imidazol-2-yl)sulfanyl]anilino}-7-[4-(4-morpholinylmethyl)phenyl]-3-quinolinecarbonitrile], the melting point lay in the range of 148 to 150 °C. In turn, `Cc1cc(Nc2c(C#N)cnc3cc(-c4csc(C5OCCO5)c4)ccc23)ccc1OCc1ccccn1` [Example 94, 7-[5-(1,3-Dioxolan-2-yl)-3-thienyl]-4-[3-methyl-4-(2-pyridinylmethoxy)anilino]-3-quinolinecarbonitrile] registered a melting point of 194 to 196 °C. `Cc1cc(Nc2c(C#N)cnc3cc(-c4csc(CN5CCOCC5)c4)ccc23)ccc1OCc1ccccn1` [Example 95, 4-[3-Methyl-4-(2-pyridinylmethoxy)anilino]-7-[5-(4-morpholinylmethyl)-3-thienyl]-3-quinolinecarbonitrile] had a melting point of 217 to 219 °C.

`COc1cc(Nc2c(C#N)cnc3cc(-c4cnc(C=O)n4C)ccc23)c(Cl)cc1Cl` [Example 96, 4-(2,4-Dichloro-5-methoxyanilino)-7-(2-formyl-1-methyl-1H-imidazol-5-yl)-3-quinolinecarbonitrile] returned a melting point of 186 to 189 °C. Take `CC(C)N1CCN(Cc2ccc(-c3ccc4c(Nc5ccc(Sc6nccn6C)c(Cl)c5)c(C#N)cnc4c3)cc2)CC1` [Example 98, 4-({3-Chloro-4-[(1-methyl-1H-imidazol-2-yl)sulfanyl]phenyl}amino)-7-{4-[(4-isopropyl-1-piperazinyl)methyl]phenyl}-3-quinolinecarbonitrile]: the melting point is 193 to 195 °C. Consider `COc1cc(Nc2c(C#N)cnc3cc(-c4ccc(Cn5ccnn5)cc4)ccc23)c(Cl)cc1Cl` [Example 103, 4-[(2,4-Dichloro-5-methoxyphenyl)amino]-7-[4-(1H-1,2,3-triazol-1-ylmethyl)phenyl]-3-quinolinecarbonitrile], for which the melting point lay in the range of 239 to 240 °C.

In the case of `CN(CCO)Cc1ccc(-c2ccc3c(Nc4ccc(Sc5nccn5C)c(Cl)c4)c(C#N)cnc3c2)nc1` [Example 106, 4-({3-Chloro-4-[(1-methyl-IH-irnidazol-2-yl)sulfanyl]phenyl}amino)-7-(5-{[(2-hydroxyethyl) (methyl)amino]methyl}-2-pyridinyl)-3-quinolinecarbonitrile], the melting point lay within 197 to 199 °C.

For `COC(=O)C1CCN(Cc2ccc(-c3ccc4c(Nc5ccc(Sc6nccn6C)c(Cl)c5)c(C#N)cnc4c3)nc2)CC1` [Example 107, Methyl 1-{[6-(4-{3-chloro-4-[(1-methyl-1H-imidazol-2-yl)sulfanyl]anilino}-3-cyano-7-quinolinyl)-3-pyridinyl]methyl}-4-piperidinecarboxylate], the melting point lay in the range of 135 to 137 °C. In the case of `CCN1CCN(c2ccc(-c3ccc4c(Nc5ccc(Sc6nccn6C)c(Cl)c5)c(C#N)cnc4c3)nc2)CC1` [Example 108, 4-({3-Chloro-4-[(1-methyl-1H-imidazol-2-yl)sulfanyl]phenyl}amino)-7-[5-(4-ethyl-1-piperazinyl)-2-pyridinyl]-3-quinolinecarbonitrile] it was 246 to 248 °C; in that of `Cn1ccnc1Sc1ccc(Nc2c(C#N)cnc3cc(-c4ccc(CN5CCOCC5)nc4)ccc23)cc1Cl` [Example 109, 4-({3-chloro-4-[(1-methylimidazol-2-yl)sulfanyl]phenyl}amino)-7-[6-(4-morpholinylmethyl)-3-pyridinyl]-3-quinolinecarbonitrile], 233 to 235 °C. `COc1cc2c(Nc3ccc(Sc4nccn4C)c(Cl)c3)c(C#N)cnc2cc1-c1csc(CN2CCOCC2)c1` [Example 125, 4-{3-chloro-4-[(1-methylimidazol-2-yl)sulfanyl]anilino}-6-methoxy-7-[5-(4-morpholinylmethyl)-3-thienyl]-3-quinolinecarbonitrile] yielded a melting point of 238 to 240 °C. `COc1cc2c(Nc3ccc(Sc4nccn4C)c(Cl)c3)c(C#N)cnc2cc1-c1csc(CN2CCN(C)CC2)c1` [Example 126, 4-{3-chloro-4-[(1-methylimidazol-2-yl)sulfanyl]anilino}-6-methoxy-7-{5-[(4-methyl-1-piperazinyl)methyl]-3-thienyl}-3-quinolinecarbonitrile] came in with a melting point of 162 to 164 °C. With `COc1ccc(-c2cc3ncc(C#N)c(Nc4ccc(Sc5nccn5C)c(Cl)c4)c3cc2OC)cc1` [Example 127, 4-{3-Chloro-4-[(I -methyl-iH-imidazol-2-yl)sulfanyl]anilino}-6-methoxy-7-(4-methoxyphenyl)-3-quinolinecarbonitrile], the melting point lay within 227 to 229 °C. Turning to `Cn1ccnc1Sc1ccc(Nc2c(C#N)cnc3cc(-c4ccc(C(=O)N5CCOCC5)cc4)ccc23)cc1Cl` [Example 129, 4-({3-Chloro-4-[(i-methyl-IH-imidazol-2-yl)sulfanyl]phenyl}amino)-7-[4-(4-morpholinylcarbonyl)phenyl]-3-quinolinecarbonitrile], the melting point lay in the range of 98 to 101 °C. Compound `COCCOc1ccc(-c2ccc3c(Nc4cc(OC)c(Cl)cc4Cl)c(C#N)cnc3c2)cc1` [Example 130, 4-(2,4-Dichloro-5-methoxyanilino)-7-{4-[(2-methoxy)ethoxy]phenyl}-3-quinolinecarbonitrile] registered a melting point of 205 to 207 °C.
